Measured values reported in patent US10214519B2, “Phosphatidylinositol 3-kinase inhibitors” (Gilead Sciences, Inc., priority 2016, dated 2019).

Target: PI3Kβ (Homo sapiens (Human), UniProt P42338)
Assay: PI3K isoform TR-FRET enzymatic assay (PI3Kβ)
Assay type: biochemical
Conditions: 2× Km ATP, 30 minutes at 25° C.
Outline: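 Heterodimeric recombinant PI3Kβ was incubated with compound 30 minutes at 25° C. Product was detected by TR-FRET competition with 10 nM labeled PIP3 for 35 nM Eu-GRP-1 PH domain after EDTA stop. Data were normalized to 1 μM wortmannin and DMSO, and IC50 was taken from a four-parameter fit.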

Sequence of PI3Kβ (P42338 whole entry, canonical isoform): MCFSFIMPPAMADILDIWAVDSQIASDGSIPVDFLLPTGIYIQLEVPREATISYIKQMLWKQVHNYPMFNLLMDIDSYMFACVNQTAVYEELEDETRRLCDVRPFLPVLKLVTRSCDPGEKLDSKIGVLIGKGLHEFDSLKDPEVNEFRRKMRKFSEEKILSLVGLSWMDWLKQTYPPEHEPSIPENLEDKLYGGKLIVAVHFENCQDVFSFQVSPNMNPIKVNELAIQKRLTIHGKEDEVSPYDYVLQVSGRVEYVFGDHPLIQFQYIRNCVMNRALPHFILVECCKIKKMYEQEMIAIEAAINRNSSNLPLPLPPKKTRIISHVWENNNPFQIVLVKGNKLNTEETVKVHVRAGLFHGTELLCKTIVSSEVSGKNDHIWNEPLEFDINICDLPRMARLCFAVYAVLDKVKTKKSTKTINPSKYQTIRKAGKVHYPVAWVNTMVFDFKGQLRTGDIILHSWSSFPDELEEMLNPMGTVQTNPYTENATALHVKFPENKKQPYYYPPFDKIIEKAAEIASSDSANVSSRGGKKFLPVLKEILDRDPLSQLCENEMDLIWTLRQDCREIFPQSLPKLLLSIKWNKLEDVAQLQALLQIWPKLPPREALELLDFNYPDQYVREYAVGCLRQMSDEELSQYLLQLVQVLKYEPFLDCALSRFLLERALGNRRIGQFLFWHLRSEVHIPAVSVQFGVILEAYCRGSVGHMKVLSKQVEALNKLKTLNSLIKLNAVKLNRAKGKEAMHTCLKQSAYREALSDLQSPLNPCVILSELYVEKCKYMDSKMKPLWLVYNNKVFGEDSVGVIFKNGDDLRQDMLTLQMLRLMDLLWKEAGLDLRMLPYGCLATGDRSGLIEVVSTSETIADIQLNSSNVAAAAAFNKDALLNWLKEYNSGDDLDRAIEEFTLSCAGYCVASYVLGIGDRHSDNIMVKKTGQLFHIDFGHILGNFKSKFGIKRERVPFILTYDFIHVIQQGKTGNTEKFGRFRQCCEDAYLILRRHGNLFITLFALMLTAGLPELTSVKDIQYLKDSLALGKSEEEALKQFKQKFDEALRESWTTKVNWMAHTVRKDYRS
Sequence of PI3Kβ (P27986 whole entry partner, canonical isoform): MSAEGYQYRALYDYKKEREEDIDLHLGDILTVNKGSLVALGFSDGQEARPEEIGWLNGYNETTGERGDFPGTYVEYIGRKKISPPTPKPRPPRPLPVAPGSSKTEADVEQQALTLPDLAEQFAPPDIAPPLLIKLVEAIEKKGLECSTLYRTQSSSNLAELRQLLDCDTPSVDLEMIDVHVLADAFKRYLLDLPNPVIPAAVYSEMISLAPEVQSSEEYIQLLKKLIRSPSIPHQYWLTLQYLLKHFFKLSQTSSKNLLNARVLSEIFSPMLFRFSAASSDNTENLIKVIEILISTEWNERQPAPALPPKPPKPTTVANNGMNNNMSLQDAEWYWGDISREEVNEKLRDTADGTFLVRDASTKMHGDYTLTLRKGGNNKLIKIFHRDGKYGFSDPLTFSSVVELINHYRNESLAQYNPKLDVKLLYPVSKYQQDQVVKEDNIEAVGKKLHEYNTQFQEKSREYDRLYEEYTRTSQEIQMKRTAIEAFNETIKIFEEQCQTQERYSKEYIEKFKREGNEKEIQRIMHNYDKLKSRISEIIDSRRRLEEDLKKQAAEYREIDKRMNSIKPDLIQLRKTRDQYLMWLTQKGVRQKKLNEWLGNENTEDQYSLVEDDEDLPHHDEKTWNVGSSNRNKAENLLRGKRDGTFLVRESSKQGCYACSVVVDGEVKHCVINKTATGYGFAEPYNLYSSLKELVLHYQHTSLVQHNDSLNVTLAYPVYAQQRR

Compound `CCCc1nc2c(-c3nnc(Cl)[nH]3)cc(N3CCOCC3)cc2n1-c1ccnc2c(F)ccc(F)c12` [Example 182, 4-[7-(5-chloro-4H-1,2,4-triazol-3-yl)-3-(5,8-difluoroquinolin-4-yl)-2-propylbenzimidazol-5-yl]morpholine] has an IC50 of 34 nM.

In the case of `CCCc1nc2c(-c3nnc(C)[nH]3)cc(N3CCOCC3)cc2n1-c1ccnc2cc(F)ccc12` [Example 21, 4-(1-(7-fluoroquinolin-4-yl)-4-(5-methyl-4H-1,2,4-triazol-3-yl)-2-propyl-1H-benzo[d]imidazol-6-yl)morpholine], the IC50 is reported as 130 nM.

Work on `Cc1cnc(-c2cc(N3CCOCC3)cc3c2nc(C)n3-c2ccnc3c(Cl)cccc23)s1` [Example 215, 4-[3-(8-chloroquinolin-4-yl)-2-methyl-7-(5-methyl-1,3-thiazol-2-yl)benzimidazol-5-yl]morpholine] yielded an IC50 of 630 nM.

Compound `Cc1nc2c(-c3nnc[nH]3)cc(N3CCOCC3)cc2n1-c1ccnc2c(F)cc(F)cc12` [Example 145, 4-[3-(6,8-difluoroquinolin-4-yl)-2-methyl-7-(4H-1,2,4-triazol-3-yl)benzimidazol-5-yl]morpholine] has an IC50 of 56 nM.

Work on `Cc1nc2c(-c3nnc[nH]3)cc(N3CCOC[C@@H]3C)cc2n1-c1ccnc2c(Cl)cccc12` [Example 99, (3S)-4-[3-(8-chloroquinolin-4-yl)-2-methyl-7-(4H-1,2,4-triazol-3-yl)benzimidazol-5-yl]-3-methylmorpholine] yielded an IC50 of 33 nM.

`CCCc1nc2c(-c3cnc(Cl)[nH]3)cc(N3CCOCC3)cc2n1-c1ccnc2c(F)cccc12` [Example 305, 4-[7-(2-chloro-1H-imidazol-5-yl)-3-(8-fluoroquinolin-4-yl)-2-propylbenzimidazol-5-yl]morpholine] was tested, and the IC50 was 13 nM.

With `Fc1ccc(F)c2c(-n3c(C4COC4)nc4c(-c5nnc[nH]5)cc(N5CCOCC5)cc43)ccnc12` [Example 123, 4-[3-(5,8-difluoroquinolin-4-yl)-2-(oxetan-3-yl)-7-(4H-1,2,4-triazol-3-yl)benzimidazol-5-yl]morpholine] the IC50 was 110 nM.

`Fc1ccc(Cl)c2nccc(-n3c(C4CC4)nc4c(-c5nnc(Cl)[nH]5)cc(N5CCOCC5)cc43)c12` [Example 174, 4-(4-(5-chloro-4H-1,2,4-triazol-3-yl)-1-(8-chloro-5-fluoroquinolin-4-yl)-2-cyclopropyl-1H-benzo[d]imidazol-6-yl)morpholine] gave an IC50 of 13 nM.

Compound `Fc1ccc2c(-n3cnc4c(-c5nnc[nH]5)cc(N5CCOCC5)cc43)ccnc2c1Cl` [Example 29, 4-(1-(8-chloro-7-fluoroquinolin-4-yl)-4-(4H-1,2,4-triazol-3-yl)-1H-benzo[d]imidazol-6-yl)morpholine] has an IC50 of 7 nM.

With `Cc1cc(-n2c(C)nc3c(-c4nnc[nH]4)cc(N4CCOCC4)cc32)c2ccccc2n1` [Example 69, 4-[2-methyl-3-(2-methylquinolin-4-yl)-7-(4H-1,2,4-triazol-3-yl)benzimidazol-5-yl]morpholine] the IC50 was 17 nM.

In the case of `Cc1nc2c(-c3ccc(Cl)s3)cc(N3CCOCC3)cc2n1-c1ccnc2c(Cl)cccc12` [Example 267, 4-[3-(8-chloroquinolin-4-yl)-7-(5-chlorothiophen-2-yl)-2-methylbenzimidazol-5-yl]morpholine], the IC50 is reported as 2100 nM.

`CCc1nc2c(-c3nnc[nH]3)cc(N3CCOCC3)cc2n1-c1ccnc2c(Cl)cccc12` [Example 105, 4-[3-(8-chloroquinolin-4-yl)-2-ethyl-7-(4H-1,2,4-triazol-3-yl)benzimidazol-5-yl]morpholine] was tested, and the IC50 was 10 nM.

With `Cc1nnc(-c2cc(N3CCOCC3)cc3c2nc(-c2ccncc2)n3-c2ccnc3c(Cl)cccc23)[nH]1` [Example 25, 4-(1-(8-chloroquinolin-4-yl)-4-(5-methyl-4H-1,2,4-triazol-3-yl)-2-(pyridin-4-yl)-1H-benzo[d]imidazol-6-yl)morpholine] the IC50 was 2200 nM.

For `Cc1cnc2c(C#N)cccc2c1-n1c(C)nc2c(-c3nnc[nH]3)cc(N3CCOCC3)cc21` (atropisomer, axis not shown) [Compound 375, 3-methyl-4-(2-methyl-6-morpholino-4-(4H-1,2,4-triazol-3-yl)-1H-benzo[d]imidazol-1-yl)quinoline-8-carbonitrile], the IC50 was 7100 nM.

For `CCc1nc2c(-c3cnc[nH]3)cc(N3CCOCC3)cc2n1-c1cc(C)nc2c(F)cccc12` [Example 211, 4-[2-ethyl-3-(8-fluoro-2-methylquinolin-4-yl)-7-(1H-imidazol-5-yl)benzimidazol-5-yl]morpholine], the IC50 was 22 nM.

`Cc1nnc(-c2cc(N3CCOCC3)cc3c2ncn3-c2cc(-c3cn[nH]c3)nc3ccccc23)[nH]1` [Example 380, 4-(1-(2-(1H-pyrazol-4-yl)quinolin-4-yl)-4-(5-methyl-4H-1,2,4-triazol-3-yl)-1H-benzo[d]imidazol-6-yl)morpholine] gave an IC50 of 240 nM.

`CCCc1nc2c(-c3cnc(Cl)[nH]3)cc(N3CCOCC3)cc2n1-c1ccnc2c(Cl)cc(F)cc12` [Example 303, 4-[3-(8-chloro-6-fluoroquinolin-4-yl)-7-(2-chloro-1H-imidazol-5-yl)-2-propylbenzimidazol-5-yl]morpholine] was tested, and the IC50 was 21 nM.

In the case of `Cc1cccc2nccc(-n3c(C)nc4c(-c5nnc[nH]5)cc(N5CCOCC5)cc43)c12` (atropisomer, axis not shown) [Compound 362, 4-[2-methyl-3-(5-methylquinolin-4-yl)-7-(4H-1,2,4-triazol-3-yl)benzimidazol-5-yl]morpholine], the IC50 is reported as 28 nM.

`CC(C)Cc1nc2c(-c3ncco3)cc(N3CCOCC3)cc2n1-c1ccnc2c(F)ccc(F)c12` [Example 219, 4-[3-(5,8-difluoroquinolin-4-yl)-2-(2-methylpropyl)-7-(1,3-oxazol-2-yl)benzimidazol-5-yl]morpholine] was tested, and the IC50 was 8 nM.

`Clc1cccc2c(-n3c(-c4cccnc4)nc4c(-c5nnc[nH]5)cc(N5CCOCC5)cc43)ccnc12` [Example 10, 4-(1-(8-chloroquinolin-4-yl)-2-(pyridin-3-yl)-4-(4H-1,2,4-triazol-3-yl)-1H-benzo[d]imidazol-6-yl)morpholine] was tested, and the IC50 was 41 nM.

For `CCc1nc2c(-c3cnn[nH]3)cc(N3CCOCC3)cc2n1-c1ccnc2c(F)ccc(F)c12` [Example 376, 4-(1-(5,8-difluoroquinolin-4-yl)-2-ethyl-4-(1H-1,2,3-triazol-5-yl)-1H-benzo[d]imidazol-6-yl)morpholine], the IC50 was 70 nM.

Compound `Clc1cccc2c(-n3c(C4CCCO4)nc4c(-c5cccnc5)cc(N5CCOCC5)cc43)ccnc12` (stereo not shown) [Example 199] has an IC50 of 610 nM.

`Cc1nnc(-c2cc(N3CCOCC3)cc3c2nc(C)n3-c2ccnc3c(Cl)c(F)ccc23)[nH]1` [Example 52, 4-(1-(8-chloro-7-fluoroquinolin-4-yl)-2-methyl-4-(5-methyl-4H-1,2,4-triazol-3-yl)-1H-benzo[d]imidazol-6-yl)morpholine] was tested, and the IC50 was 15 nM.

`Fc1ccc(F)c2c(-n3c(C4CC4)nc4c(-c5nnc(Cl)[nH]5)cc(N5CCOCC5)cc43)ccnc12` [Example 181, 4-[7-(5-chloro-4H-1,2,4-triazol-3-yl)-2-cyclopropyl-3-(5,8-difluoroquinolin-4-yl)benzimidazol-5-yl]morpholine] showed an IC50 of 210 nM.

`Cc1nc2c(-c3nnc[nH]3)cc(N3CCOCC3)cc2n1-c1ccnc2cccc(Cl)c12` [Example 84, 4-[3-(5-chloroquinolin-4-yl)-2-methyl-7-(4H-1,2,4-triazol-3-yl)benzimidazol-5-yl]morpholine] was tested, and the IC50 was 17 nM.

With `COCCc1nc2c(-c3nnc[nH]3)cc(N3CCOCC3)cc2n1-c1ccnc2c(Cl)cccc12` [Example 116, 4-[3-(8-chloroquinolin-4-yl)-2-(2-methoxyethyl)-7-(4H-1,2,4-triazol-3-yl)benzimidazol-5-yl]morpholine] the IC50 was 21 nM.

For `Cc1nc2c(-c3nnc[nH]3)cc(N3CCOCC3)cc2n1-c1ccnc2c(Cl)cc(F)cc12` [Example 35, 4-(1-(8-chloro-6-fluoroquinolin-4-yl)-2-methyl-4-(4H-1,2,4-triazol-3-yl)-1H-benzo[d]imidazol-6-yl)morpholine], the IC50 was 11 nM.

`Fc1ccc(F)c2c(-n3c(CC4CC4)nc4c(-c5ncco5)cc(N5CCOCC5)cc43)ccnc12` [Example 221, 4-[2-(cyclopropylmethyl)-3-(5,8-difluoroquinolin-4-yl)-7-(1,3-oxazol-2-yl)benzimidazol-5-yl]morpholine] was tested, and the IC50 was 11 nM.

`COCCc1nc2c(-c3nnc[nH]3)cc(N3CCOCC3)cc2n1-c1ccnc2c(F)cccc12` [Example 42, 4-(1-(8-fluoroquinolin-4-yl)-2-(2-methoxyethyl)-4-(4H-1,2,4-triazol-3-yl)-1H-benzo[d]imidazol-6-yl)morpholine] showed an IC50 of 20 nM.

In the case of `FC(F)c1cc(-n2cnc3c(-c4nnc[nH]4)cc(N4CCOCC4)cc32)c2cccc(Cl)c2n1` [Example 88, 4-[3-[8-chloro-2-(difluoromethyl)quinolin-4-yl]-7-(4H-1,2,4-triazol-3-yl)benzimidazol-5-yl]morpholine], the IC50 is reported as 4 nM.

For `Cc1nc2c(F)cccc2c(-n2c(C)nc3c(-c4nnc[nH]4)cc(N4CCOCC4)cc32)c1C` [Example 61, 4-[3-(8-fluoro-2,3-dimethylquinolin-4-yl)-2-methyl-7-(4H-1,2,4-triazol-3-yl)benzimidazol-5-yl]morpholine], the IC50 was 27 nM.

In the case of `Clc1cccc2c(-n3c(C4CC4)nc4c(-c5cnn[nH]5)cc(N5CCOCC5)cc43)ccnc12` [Example 378, 4-(1-(8-chloroquinolin-4-yl)-2-cyclopropyl-4-(1H-1,2,3-triazol-5-yl)-1H-benzo[d]imidazol-6-yl)morpholine], the IC50 is reported as 27 nM.

For `Cc1nc2c(-c3cnccn3)cc(N3CCOCC3)cc2n1-c1ccnc2c(Cl)cccc12` [Example 246, 4-[3-(8-chloroquinolin-4-yl)-2-methyl-7-pyrazin-2-ylbenzimidazol-5-yl]morpholine], the IC50 was 1100 nM.

`Fc1cccc2c(-n3c(CC4CC4)nc4c(-c5ncco5)cc(N5CCOCC5)cc43)ccnc12` [Example 225, 4-[2-(cyclopropylmethyl)-3-(8-fluoroquinolin-4-yl)-7-(1,3-oxazol-2-yl)benzimidazol-5-yl]morpholine] gave an IC50 of 18 nM.
